Each structure is given as a SMILES string.

For the first assay, the target named is T1, human Cot/Tpl2 kinase (Homo sapiens, UniProt P41279).
T1 construct: human Cot/Tpl2 kinase construct encoding residues 30-398; 6His (N); made in house; host or cells: Sf9 insect cells (baculovirus system, BD Biosciences)
T1 sequence (P41279 30-398): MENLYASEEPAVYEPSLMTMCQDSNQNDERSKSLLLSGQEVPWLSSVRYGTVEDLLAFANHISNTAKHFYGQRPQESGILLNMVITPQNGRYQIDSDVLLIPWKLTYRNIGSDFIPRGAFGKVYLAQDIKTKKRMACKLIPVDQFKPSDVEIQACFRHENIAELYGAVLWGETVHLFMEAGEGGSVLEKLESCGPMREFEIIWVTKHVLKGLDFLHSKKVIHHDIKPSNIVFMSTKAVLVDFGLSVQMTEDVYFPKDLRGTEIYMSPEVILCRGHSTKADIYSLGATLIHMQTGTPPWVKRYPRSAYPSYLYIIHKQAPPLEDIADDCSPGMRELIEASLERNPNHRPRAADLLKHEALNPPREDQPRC
The experiment in a line: Tpl2/Cot kinase assay, GST-MEK1 phosphorylation detected by ELISA (DELFIA Eu). Conditions: Table 1; 0.4 nM Tpl2, 35 nM GST-MEK1, 50 uM ATP, 1 h at 30° C. The class given is biochemical. As for the experimental part: Sf9 cells expressing the kinase were lysed in 50 mM NaPhosphate pH=8; 300 mM NaCl; 5 mM imidazole; 0.1 mM EGTA; 25 mM beta-glycerophosphate; 1% TX-100, 1% glycerol; 6 mM beta-mercaptoethanol and protease inhibitors. The lysate was clarified by centrifugation and was loaded onto a Ni-Sepharose column. The column was washed with 50 mM NaPhosphate pH=8; 300 mM NaCl; 15 mM imidazole; 1% glycerol; and 6 mM beta-mercaptoethanol. His-Tpl2 was eluted with 50 mM NaPhosphate pH=8; 300 mM NaCl; 250 mM imidazole; 1% glycerol; and 6 mM beta-mercaptoethanol. The eluted protein was further purified by size exclusion chromatography. Fractions corresponding to monomeric Tpl2 were then used in the assay.
Tpl2/Cot activity was directly assayed using GST-MEK1 as a substrate. GST-MEK1 phosphorylation on serine residues 217 and 221 was detected by ELISA. 0.4 nM Tpl2 was incubated with 35 nM GST-MEK1 in a kinase reaction buffer containing 20 mM MOPS pH=7.2; 50 uM ATP; 20 mM MgCl2; 1 mM DTT; 25 mM β-glycerophosphate; 5 mM EGTA; and 1 mM sodium orthovanadate for 1 h at 30° C. The compounds of the inventions solubilized in 100% DMSO were pre-diluted in assay buffer so that the final concentration of DMSO in the reaction was 1%. The kinase reaction was carried out in 100 ul volume on 96 well plates. The kinase reaction was then stopped with the addition of 100 mM EDTA. […] After a 1 hour incubation at room temperature, the detection plate was washed 4 times with TBST (TBS+0.05% Tween 20) and then incubated for another hour at room temperature with anti phospho-MEK1 antibody (Cell Signaling) 1:1000 in 10 mM MOPS 7.5; 150 mM NaCl; 0.05% Tween 20; 0.1% Gelatin; 0.02% NaN3; and 1% BSA. The detection plate was washed again and incubated for 30 min with DELFIA Europium (Eu) labeled goat anti-rabbit IgG (Perkin-Elmer), 1:4000 in the same buffer used for the primary incubation. After a final wash, Eu detection solution was added to each well and the Eu signal was measured in a Wallac Victor^2 Multilabel Counter. IC50 calculations were preformed using the XLfit software package (IDBS, Guildford, UK).
Usually IC50 stands for the point on the concentration scale where inhibition reaches its midpoint. In the case of `C[C@H](Nc1cc2c(Nc3ccc(F)c(Cl)c3)c(C#N)cnc2cn1)c1ccccc1` [Example 57, 4-[(3-chloro-4-fluorophenyl)amino]-6-{[(1S)-1-phenylethyl]amino}-1,7-naphthyridine-3-carbonitrile], half-maximal inhibition (IC50) required 36 µM. With `CC(C)c1cccc(Nc2c(C#N)cnc3cnc(OCCN4CCOCC4)cc23)c1` [Example 36, 4-[(3-isopropylphenyl)amino]-6-(2-morpholin-4-ylethoxy)-1,7-naphthyridine-3-carbonitrile], the IC50 is greater than 40 µM. On the same count and under the same terms, for `N#Cc1cnc2cnc(NCc3cccnc3)cc2c1Nc1ccc(Cc2ccccc2)cc1` [Example 14, 4-(4-benzylphenylamino)-6-(pyridin-3-ylmethylamino)-1,7-naphthryidine-3-carbonitrile] the value was 0.017 µM; for `N#Cc1cnc2cnc(NCCCN3CCOCC3)cc2c1Nc1ccc(F)c(Cl)c1` [Example 49, 4-[(3-chloro-4-fluorophenyl)amino]-6-[(3-morpholin-4-ylpropyl)amino]-1,7-naphthyridine-3-carbonitrile], 3 µM; for `N#Cc1cnc2cnc(NCc3cccnc3)cc2c1Nc1cccc(Cl)c1` [Example 12, 4-(3-chlorophenylamino)-6-(pyridin-3-ylmethylamino)-1,7-naphthyridine-3-carbonitrile], 0.065 µM. Compound `C[C@@H](O)CNc1cc2c(Nc3ccc(F)c(Cl)c3)c(C#N)cnc2cn1` [Example 55, 4-[(3-chloro-4-fluorophenyl)amino]-6-{[(2R)-2-hydroxypropyl]amino}-1,7-naphthyridine-3-carbonitrile] came in with an IC50 of 1.5 µM. Same read-out and setting: for `CCN1CCC[C@H]1CNc1cc2c(Nc3ccc(F)c(Cl)c3)c(C#N)cnc2cn1` [Example 74] the value was 0.18 µM; for `COC(=O)c1ccc(Nc2c(C#N)cnc3cnc(NCc4cccnc4)cc23)cc1` [Example 30, Methyl 4-(3-cyano-6-(pyridin-3-ylmethylamino)-1,7-naphthyridin-4-ylamino)benzoate], greater than 40 µM; for `N#Cc1cnc2cnc(NCc3cccnc3)cc2c1Nc1ccc(OC(F)(F)F)cc1` [Example 33, 6-(pyridin-3-ylmethylamino)-4-(4-(trifluoromethoxy)phenylamino)-1,7-naphthyridine-3-carbonitrile], greater than 40 µM. The same measure, in the same setting: as for `N#Cc1cnc2cnc(N[C@H](CN3CCOCC3)c3ccccc3)cc2c1Nc1ccc(F)c(Cl)c1` [Example 58, 4-[(3-chloro-4-fluorophenyl)amino]-6-{[(1S)-2-morpholin-4-yl-1-phenylethyl]amino}-1,7-naphthyridine-3-carbonitrile], the figure is 3.7 µM; as for `COc1ccc(CNc2cc3c(Nc4cccc(C(C)C)c4)c(C#N)cnc3cn2)cc1` [Example 38, 4-[(3-isopropylphenyl)amino]-6-[(4-methoxybenzyl)amino]-1,7-naphthyridine-3-carbonitrile], greater than 40 µM. On to `CC(C)c1ccc(Nc2c(C#N)cnc3cnc(NCCN4CCOCC4)cc23)cc1` [Example 43, 4-[(4-isopropylphenyl)amino]-6-[(2-morpholin-4-ylethyl)amino]-1,7-naphthyridine-3-carbonitrile], for which the IC50 was greater than 40 µM. Still for that read-out and setting: for `N#Cc1cnc2cnc(NCCN3CCOCC3)cc2c1Nc1ccc2[nH]ccc2c1` [Example 44, 4-(1H-indol-5-ylamino)-6-[(2-morpholin-4-ylethyl)amino]-1,7-naphthyridine-3-carbonitrile] the value was greater than 40 µM; for `N#Cc1cnc2cnc(NCCN3CCOCC3)cc2c1Nc1cccc(Oc2ccccc2)c1` [Example 2, 6-(2-morpholinoethylamino)-4-(3-phenoxyphenylamino)-1,7-naphthyridine-3-carbonitrile], 11.6 µM. In turn, `N#Cc1cnc2cnc(NCc3cccnc3)cc2c1Nc1ccc(Nc2ccccc2)cc1` [Example 18, 4-(4-(phenylamino)phenylamino)-6-(pyridin-3-ylmethylamino)-1,7-naphthyridine-3-carbonitrile] yielded an IC50 greater than 10 µM. Consider `N#Cc1cnc2cnc(NCc3c(N)cccc3F)cc2c1Nc1ccc(F)c(Cl)c1` [Example 61, 6-[(2-amino-6-fluorobenzyl)amino]-4-[(3-chloro-4-fluorophenyl)amino]-1,7-naphthyridine-3-carbonitrile], for which the IC50 stood at 10.5 µM.

`N#Cc1cnc2cnc(NCCN3CCOCC3)cc2c1Nc1ccc(F)cc1` [Example 4, 4-(4-fluorophenylamino)-6-(2-morpholinoethylamino)-1,7-naphthryidine-3-carbonitrile] had an IC50 of 10.7 µM. With `N#Cc1cnc2cnc(NC(CN3CCOCC3)c3ccccc3)cc2c1Nc1ccc(F)c(Cl)c1` (centres unmarked) [Example 60, 4-[(3-chloro-4-fluorophenyl)amino]-6-[(2-morpholin-4-yl-1-phenylethyl)amino]-1,7-naphthyridine-3-carbonitrile], the IC50 was 2.4 µM. Same read-out and setting: as for `N#Cc1cnc2cnc(NCCN3CCOCC3)cc2c1Nc1ccc(Sc2ccccc2)cc1` [Example 11, 6-(2-morpholinoethylamino)-4-(4-(phenylthio)phenylamino)-1,7-naphthyridine-3-carbonitrile], the figure is 0.006 µM.

The same assay, now with this note: Table 2; additional representative compounds.
Regarding `N#Cc1cnc2cnc(NCc3cccnc3)cc2c1NCc1cccnc1` [Example 145, 4,6-bis(pyridin-3-ylmethylamino)-1,7-naphthyridine-3-carbonitrile], the IC50 is greater than 40 µM.

Turning to `N#Cc1cnc2cnc(NCc3ccncc3)cc2c1Nc1ccc(F)c(Cl)c1` [Example 119, 4-(3-chloro-4-fluorophenylamino)-6-(pyridin-4-ylmethylamino)-1,7-naphthyridine-3-carbonitrile], the midpoint of inhibition, the IC50, lay at 0.031 µM. Compound `N#Cc1cnc2cnc(NCCN3CCCCC3)cc2c1Nc1ccc(F)c(Cl)c1` [Example 122, 4-[(3-chloro-4-fluorophenyl)amino]-6-[(2-piperidin-1-ylethyl)amino]-1,7-naphthyridine-3-carbonitrile] registered an IC50 of 2.5 µM. The same measure, in the same setting: for `CC(C)(C)Nc1c(C#N)cnc2cnc(NCc3ccc(S(C)(=O)=O)cc3)cc12` [Example 130, 4-(tert-butylamino)-6-{[4-(methylsulfonyl)benzyl]amino}-1,7-naphthyridine-3-carbonitrile] the value was 4.6 µM.

As to `N#Cc1cnc2cnc(F)cc2c1Nc1cccc(I)c1` [Example 104, 6-fluoro-4-[(3-iodophenyl)amino]-1,7-naphthyridine-3-carbonitrile], the half-inhibitory concentration (IC50) was greater than 40 µM. The same measure, in the same setting: as for `CCC(C)(C)Nc1c(C#N)cnc2cnc(NCc3cccnc3)cc12` [Example 135, 4-[(1,1-dimethylpropyl)amino]-6-[(pyridin-3-ylmethyl)amino]-1,7-naphthyridine-3-carbonitrile], the figure is 0.1 µM; as for `N#Cc1cnc2cnc(NCc3c(Cl)cccc3Cl)cc2c1NCc1c(Cl)cccc1Cl` [Example 127, 4,6-bis[(2,6-dichlorobenzyl)amino]-1,7-naphthyridine-3-carbonitrile], greater than 40 µM.

In turn, `CC(C)(C)Nc1cc2c(Nc3ccc(F)c(Cl)c3)c(C#N)cnc2cn1` [Example 143, 6-(tert-butylamino)-4-[(3-chloro-4-fluorophenyl)amino]-1,7-naphthyridine-3-carbonitrile] gave an IC50 greater than 40 µM. The same measure, in the same setting: for `N#Cc1cnc2cnc(NCCN3CCN(Cc4ccccc4)CC3)cc2c1Nc1ccc(F)c(Cl)c1` [Example 117, 6-(2-(4-benzylpiperazin-1-yl)ethylamino)-4-(3-chloro-4-fluorophenylamino)-1,7-naphthyridine-3-carbonitrile] the value was 2.4 µM; for `C#CC1(Nc2c(C#N)cnc3cnc(F)cc23)CCCCC1` [Example 142, 4-[(1-ethynylcyclohexyl)amino]-6-fluoro-1,7-naphthyridine-3-carbonitrile], 28 µM; for `CC(C)c1ccc(Nc2c(C#N)cnc3cnc(F)cc23)cc1` [Example 101, 6-fluoro-4-[(4-isopropylphenyl)amino]-1,7-naphthyridine-3-carbonitrile], greater than 40 µM. For the compound `N#Cc1cnc2cnc(NCc3ccccn3)cc2c1Nc1ccc(F)c(Cl)c1` [Example 123, 4-(3-chloro-4-fluorophenylamino)-6-(pyridin-2-ylmethylamino)-1,7-naphthyridine-3-carbonitrile], the IC50 worked out at 0.13 µM. Compound `Cn1nc(C(C)(C)C)cc1Nc1c(C#N)cnc2ccc(N)cc12` [Example 139, 6-amino-4-[(3-tert-butyl-1-methyl-1H-pyrazol-5-yl)amino]quinoline-3-carbonitrile] returned an IC50 of 0.27 µM.

(Values after US20060276498A1 (Wyeth, priority 2005, published 2006).)
